The nature of the experiment: Inhibition of HIV-1 Mutant HIV-1 RT enzymes containing the single amino acid substitution V179D.

Broadly, the Ki is the dissociation constant of the complex between target and ligand, obtained from inhibition or displacement. The low end stands for higher affinity, the high end for lower affinity. In turn, `Cc1cc2nc(OCCNC(=S)Nc3ccc(Br)cn3)c3cccn3c2cc1C` [1-(5-Bromo-pyridin-2-yl)-3-[2-(7,8-dimethyl-pyrrolo[1,2-a]quinoxalin-4-yloxy)-ethyl]-thiourea] returned a Ki of 0.8 µM. For `S=C(NCCOc1nc2cc(Cl)ccc2n2cccc12)Nc1ccc(Br)cn1` [1-(5-Bromo-pyridin-2-yl)-3-[2-(7-chloro-pyrrolo[1,2-a]quinoxalin-4-yloxy)-ethyl]-thiourea] the value was 0.07 µM.

The values are drawn from BindingDB's records for doi:10.1021/jm0010365 (Universita' Degli Studi Di Salerno, 2001).
